Source: ChEMBL document CHEMBL4673279, “Aromatic Ring Substituted Aaptamine Analogues as Potential Cytotoxic Agents against Extranodal Natural Killer/T-Cell Lymphoma” (J Nat Prod, 2020)

How the values were obtained:
[1] = (§1) Cytotoxicity against human SNK6 cells assessed as reduction in cell viability after 48 hrs by CCK8 assay; format: functional, cell-based; conditions: SNK6, 48 h
NB-4 = experiment: Cytotoxicity against human NB4 cells assessed as reduction in cell viability after 48 hrs by CCK8 assay; format: functional, cell-based; conditions: NB-4, 48 h
MCF7 = experiment: Cytotoxicity against human MCF7 cells assessed as reduction in cell viability after 48 hrs by CCK8 assay; format: functional, cell-based; conditions: MCF7, 48 h
HeLa = experiment: Cytotoxicity against human HeLa cells assessed as reduction in cell viability after 48 hrs by CCK8 assay; format: functional, cell-based
Ramos = experiment: Cytotoxicity against human Ramos cells assessed as reduction in cell viability after 48 hrs by CCK8 assay; format: functional, cell-based
SNK6 = experiment: as §1; format: functional, cell-based
Raji = experiment: Cytotoxicity against human Raji cells assessed as reduction in cell viability after 48 hrs by CCK8 assay; format: functional, cell-based
GES1 = experiment: Cytotoxicity against human GES1 cells assessed as reduction in cell viability after 48 hrs by CCK8 assay; format: cell-based; conditions: GES1, 48 h
L02 = experiment: Cytotoxicity against human L02 cells assessed as reduction in cell viability after 48 hrs by CCK8 assay; format: cell-based; conditions: L02, 48 h
[2] = Cytotoxicity against human NK92 cells assessed as cell viability at 20 uM after 48 hrs by CCK8 assay relative to control; format: cell-based; conditions: read-out: Activity
[3] = Cytotoxicity against human HEK293T cells assessed as cell viability at 20 uM after 48 hrs by CCK8 assay relative to control; format: cell-based, HEK-293T; conditions: read-out: Activity
U-937 = experiment: Cytotoxicity against human U937 cells assessed as reduction in cell viability after 48 hrs by CCK8 assay; format: functional, cell-based
SNT8 = experiment: Cytotoxicity against human SNT8 cells assessed as reduction in cell viability after 48 hrs by CCK8 assay; format: functional, cell-based
SUD4 = experiment: Cytotoxicity against human SU-DHL-4 cells assessed as reduction in cell viability after 48 hrs by CCK8 assay; format: functional, cell-based
[4] = (§2) Cytotoxicity against human WSUDLCL2 cells assessed as reduction in cell viability after 48 hrs by CCK8 assay; format: functional, cell-based; conditions: WSUDLCL2, 48 h
WSUDLCL2 = experiment: as §2; format: functional, cell-based

Structure (SMILES) | IC50 [1] [µM] | IC50 (NB-4) [µM] | IC50 (MCF7) [µM] | IC50 (HeLa) [µM] | other results
COc1c(OC)c2c3c(nccc3c1-c1cccc3ccccc13)C(c1cccc3ccccc13)=CN2 | > 20 | > 20 | > 20 | 8.2 | 
COc1c(OC)c2c3c(nccc3c1-c1ccc(F)cc1)C(c1ccc(F)cc1)=CN2 | > 20 | 19 | > 20 | 8.7 | 
COc1c(OC)c2c3c(nccc3c1-c1cc(C)cc(C)c1)C(c1cc(C)cc(C)c1)=CN2 | 3.1 | 7.9 | 8.3 | 5.4 | 
COc1ccc(C2=CNc3c(OC)c(OC)c(-c4ccc(OC)cc4)c4ccnc2c34)cc1 | 5.8 | > 20 | 12 | 13 | 
COc1cc2ccnc3c2c(c1OC)NC=C3c1ccc(Cl)cc1 | > 20 | > 20 | > 20 | > 20 | 
COc1c(OC)c2c3c(nccc3c1-c1cccc(F)c1)C(c1cccc(F)c1)=CN2 | 10 | > 20 | 20 | 17 | 
COc1ccc(C2=CNc3c(OC)c(OC)cc4ccnc2c34)cc1 | > 20 | > 20 | > 20 | > 20 | 
COc1c(OC)c2c3c(nccc3c1-c1ccccc1)C=CN2 | > 20 | > 20 | > 20 | > 20 | 
COc1c(OC)c2c3c(nccc3c1-c1cccc(C(C)C)c1)C=CN2 | > 20 | > 20 | > 20 | > 20 | 
COc1c(OC)c2c3c(nccc3c1-c1ccccc1)C(c1ccccc1)=CN2 | > 20 | > 20 | 19 | 11 | 
COc1cc2ccnc3c2c(c1OC)NC=C3c1cccc(C(C)C)c1 | 8.4 | 17 | > 20 | 11 | 
COc1c(OC)c2c3c(nccc3c1-c1cccc3ccccc13)C=CN2 | 16 | > 20 | > 20 | 18 | 
COc1cc2ccnc3c2c(c1OC)NC=C3c1ccccc1 | 8.9 | > 20 | 12 | 17 | 
COc1cc2ccnc3c2c(c1OC)NC=C3c1cccc(C)c1 | > 20 | > 20 | > 20 | 12 | 
COc1c(OC)c2c3c(nccc3c1-c1ccc(C(F)(F)F)cc1)C(c1ccc(C(F)(F)F)cc1)=CN2 | 9.4 | > 20 | > 20 | > 20 | 
COc1c(OC)c2c3c(nccc3c1-c1cccc(C)c1)C(c1cccc(C)c1)=CN2 | 0.6 | 2.1 | 10 | 7.2 | Activity (Ramos): Dose-dependent effect; IC50 (Ramos): 1.4 µM; Activity (SNK6): Dose-dependent effect; Activity (Raji): Dose-dependent effect; IC50 (Raji): 1.4 µM; IC50 (GES1): 2 µM; IC50 (L02): 3.4 µM; viability at 48 h, 20 µM [2]: ≤ 90%; viability at 48 h, 20 µM [3]: ≤ 90%; Activity (U-937): Dose-dependent effect; IC50 (U-937; U-937, 48 h): 2.8 µM; Activity (SNT8): Dose-dependent effect; Activity (SUD4): Dose-dependent effect; IC50 (SUD4; SU-DHL-4, 48 h): 0.8 µM; IC50 [4]: 1.3 µM; Activity (WSUDLCL2): Dose-dependent effect

Structure (SMILES) | IC50 [1] [µM] | IC50 (NB-4) [µM] | IC50 (MCF7) [µM] | IC50 (HeLa) [µM] | other results
COc1cc2ccnc3c2c(c1OC)NC=C3c1cccc(F)c1 | > 20 | > 20 | > 20 | > 20 | 
COc1c(OC)c2c3c(nccc3c1-c1ccc(Cl)cc1)C=CN2 | 7.7 | > 20 | 9.4 | 1.9 | 
CCc1ccc(C2=CNc3c(OC)c(OC)c(-c4ccc(CC)cc4)c4ccnc2c34)cc1 | 4.2 | 16 | 18 | 17 | 
COc1c(OC)c2c3c(nccc3c1-c1cccc(C(F)(F)F)c1)C=CN2 | 4.3 | > 20 | 3.2 | 8.9 | 
COc1c(OC)c2c3c(nccc3c1-c1ccc(C(F)(F)F)cc1)C=CN2 | > 20 | > 20 | 11 | 11 | 
CCc1ccc(C2=CNc3c(OC)c(OC)cc4ccnc2c34)cc1 | 4.9 | > 20 | > 20 | 11 | 
COc1ccc(-c2c(OC)c(OC)c3c4c(nccc24)C=CN3)cc1 | 1.7 | > 20 | 9.8 | 11 | 
COc1cc2ccnc3c2c(c1OC)NC=C3c1cccc(C(F)(F)F)c1 | 8.8 | > 20 | 17 | 15 | 
COc1c(OC)c2c3c(nccc3c1-c1ccc(Cl)cc1)C(c1ccc(Cl)cc1)=CN2 | 8.4 | 17 | > 20 | 11 | 
COc1cc2ccnc3c2c(c1OC)NC=C3c1cccc(O)c1 | > 20 | > 20 | > 20 | > 20 | 
COc1c(OC)c2c3c(nccc3c1-c1cccc(C(F)(F)F)c1)C(c1cccc(C(F)(F)F)c1)=CN2 | 8.6 | 7.1 | > 20 | 18 | 
COc1cc2ccnc3c2c(c1OC)NC=C3c1cccc2ccccc12 | > 20 | > 20 | > 20 | 4 | 
COc1c(OC)c2c3c(nccc3c1-c1cccc(C(C)C)c1)C(c1cccc(C(C)C)c1)=CN2 | > 20 | > 20 | > 20 | > 20 | 
COc1cc2ccnc3c2c(c1OC)NC=C3 [AAPTAMINE] | > 20 | > 20 | > 20 | 19 | 
COc1c(OC)c2c3c(nccc3c1-c1ccc(C)cc1)C(c1ccc(C)cc1)=CN2 | 11 | 18 | > 20 | 12 | 
